Consider ten compounds from PubChem BioAssay AID210 (DTP/NCI, 2004).

“And” between values parts separate entries of the source, which are not always exact repeats. Equal values may be shown once. Toxic doses and inconclusive results are not listed. *1 amine or outer side, *2 acyl side, *3 side chain or, on linkers, in order; H or OH if unused. Where a SMILES comes first, the peptide text is derived from it. Bridges are numbered along the chain shown (N, C = ends). Roman numbers before positions name the chains, in order. [ ]: non-standard residue; d: D form. Actinocin(9to1) = Cc1c2oc3c(C)ccc(C(=O)[*:1])c3nc-2c(C(=O)[*:2])c(N)c1=O; aThr = C[C@H](O)[C@H](N)C(=O)O; NMeV = CN[C@H](C(=O)O)C(C)C; Sar = CNCC(=O)O

This assay relates to CD2F1 mice, ip Colon 26 adenocarcinoma, median survival T/C. The assay is described as follows: NCI In Vivo Anticancer Drug Screen. Data for tumor model Colon 26 Adenocarcinoma (intraperitoneal) in CD2F1 (CDF1) mice. Particulars: endpoint: median survival time, higher = longer survival. As for the experimental part: The antitumor activity of compounds was measured in mice bearing transplantable tumors. Survival or tumor size were measured and the results are expressed as the measurement made in the treated group (T) divided by the measurement made in the vehicle treated control group (C). The tumor model used in this assay is Colon 26 Adenocarcinoma (intraperitoneal) in CD2F1 (CDF1) mice

Setting [1] is: dose: 12.5 mg/kg/injection, schedule: Q04DX003 (ip), vehicle: Klucel (hydroxypropylcellulose) (HPC).
The mark [2] stands for this setting: dose: 25.0 mg/kg/injection, schedule: Q04DX003 (ip), vehicle: Klucel (hydroxypropylcellulose) (HPC).
Where [3] appears, read: dose: 50.0 mg/kg/injection, schedule: Q04DX003 (ip), vehicle: Klucel (hydroxypropylcellulose) (HPC).

As for `Cc1c2oc3c(C)ccc(C(=O)N[C@@H]4C(=O)N[C@H](C(C)C)C(=O)N5CCC[C@H]5C(=O)N(C)CC(=O)N(C)[C@@H](C(C)C)C(=O)O[C@H]4C)c3nc-2c(C(=O)N[C@@H]2C(=O)N[C@H](C(C)C)C(=O)N3CCC[C@H]3C(=O)N(C)CC(=O)N(C)[C@@H](C(C)C)C(=O)O[C@H]2C)c(N)c1=O` (I: [aThr][dV]P[Sar][NMeV] / II: [aThr][dV]P[Sar][NMeV]; ester I:1-I:C, II:1-II:C; linker I:N-II:N via Actinocin(9to1)), the T/C (dose: 0.13 mg/kg/injection, schedule: Q01DX001 (ip), vehicle: saline) was 92 % of control; the T/C (dose: 0.25 mg/kg/injection, schedule: Q01DX001 (ip), vehicle: saline) is 99 % of control; the T/C (dose: 0.5 mg/kg/injection, schedule: Q01DX001 (ip), vehicle: saline) was 110 % of control; the T/C (dose: 1.0 mg/kg/injection, schedule: Q01DX001 (ip), vehicle: saline) is 107 % of control; the T/C (dose: 28.0 micrograms/kg/injection, schedule: Q04DX003 (ip), vehicle: saline) was 122 % of control; the T/C (dose: 125.0 micrograms/kg/injection, schedule: Q01DX001 (ip), vehicle: saline + alcohol) was 113 % of control. Besides, the T/C reads like this: (dose: 180.0 micrograms/kg/injection, schedule: Q04DX003 (ip), vehicle: saline + alcohol) 123 % of control; (dose: 216.0 micrograms/kg/injection, schedule: Q04DX003 (ip), vehicle: saline) 156 % of control; (dose: 250.0 micrograms/kg/injection, schedule: Q01DX001 (ip), vehicle: saline + alcohol) 109 % of control; (dose: 500.0 micrograms/kg/injection, schedule: Q01DX001 (ip), vehicle: saline + alcohol) 113 % of control; (dose: 500.0 micrograms/kg/injection, schedule: Q04DX003 (ip), vehicle: saline + alcohol) 153 % of control.
`CN(C)CCNc1ccc(NCCN(C)C)c2c1C(=O)c1ccccc1C2=O`: the T/C is 115 % of control and 119 % of control (dose: 5.0 mg/kg/injection, schedule: Q01DX009 (ip), vehicle: acid diluted with saline); 108 % of control and 123 % of control and 202 % of control (dose: 10.0 mg/kg/injection, schedule: Q01DX009 (ip), vehicle: acid diluted with saline); 104 % of control and 105 % of control (dose: 40.0 mg/kg/injection, schedule: Q01DX009 (ip), vehicle: acid diluted with saline).
As for `CN(C1=NS(=O)(=O)N=C(N(C)c2ccccc2)O1)c1ccccc1`, the T/C was 96 % of control under setting [1]; 89 % of control under setting [2]; 95 % of control under setting [3]; 90 % of control (dose: 200.0 mg/kg/injection, schedule: Q04DX003 (ip), vehicle: Klucel (hydroxypropylcellulose) (HPC)).
As for `N=c1ccn2c(n1)OC1C(O)C(CO)OC12` (stereo not given), the T/C was 110 % of control (dose: 111.0 mg/kg/injection, schedule: Q01DX009 (ip), vehicle: saline with Tween-80); 115 % of control (dose: 167.0 mg/kg/injection, schedule: Q01DX009 (ip), vehicle: saline with Tween-80); 121 % of control (dose: 250.0 mg/kg/injection, schedule: Q01DX009 (ip), vehicle: saline with Tween-80).
For `CCCNCCNc1ccc(NCCNCCC)c2c1C(=O)c1ccccc1C2=O`, the T/C reads like this: (dose: 4.0 mg/kg/injection, schedule: Q01DX009 (ip), vehicle: acid diluted with saline) 106 % of control; (dose: 8.0 mg/kg/injection, schedule: Q01DX009 (ip), vehicle: acid diluted with saline) 98 % of control; (dose: 16.0 mg/kg/injection, schedule: Q01DX009 (ip), vehicle: acid diluted with saline) 100 % of control.
With `COc1cc2c3cc1Oc1c(O)c(OC)cc4c1[C@H](Cc1ccc(cc1)Oc1cc(ccc1O)C[C@H]3N(C)CC2)N(C)CC4`, the T/C by setting is: (dose: 5.0 mg/kg/injection, schedule: Q04DX003 (ip), vehicle: distilled water + Tween-80) 95 % of control; (dose: 10.0 mg/kg/injection, schedule: Q04DX003 (ip), vehicle: distilled water + Tween-80) 103 % of control; (dose: 20.0 mg/kg/injection, schedule: Q04DX003 (ip), vehicle: distilled water + Tween-80) 97 % of control; (dose: 40.0 mg/kg/injection, schedule: Q04DX003 (ip), vehicle: distilled water + Tween-80) 115 % of control; (dose: 40.0 mg/kg/injection, schedule: Q04DX003 (ip), vehicle: saline with Tween-80) 95 % of control.
On to `CC(CN1CC(=O)NC(=O)C1)N1CC(=O)NC(=O)C1` (stereo not given), for which the T/C under setting [1] was 100 % of control, the T/C under setting [2] is 98 % of control and the T/C under setting [3] was 102 % of control.
For `CC(=O)O[C@@H]1[C@@H](O)C2=C3[C@]4(C)[C@@H]1C(C)(C)C(=O)C[C@@H]4[C@]3(O)[C@H](OC(C)=O)[C@@]1(C[C@@H]1C)C2=O`, the T/C is 94 % of control (dose: 6.25 mg/kg/injection, schedule: Q04DX003 (ip), vehicle: distilled water + Tween-80); 106 % of control (dose: 6.25 mg/kg/injection, schedule: Q04DX003 (ip), vehicle: saline with Tween-80); 106 % of control (dose: 12.5 mg/kg/injection, schedule: Q04DX003 (ip), vehicle: distilled water + Tween-80); 106 % of control (dose: 25.0 mg/kg/injection, schedule: Q04DX003 (ip), vehicle: distilled water + Tween-80); 99 % of control (dose: 25.0 mg/kg/injection, schedule: Q04DX003 (ip), vehicle: saline with Tween-80); 100 % of control (dose: 50.0 mg/kg/injection, schedule: Q04DX003 (ip), vehicle: distilled water + Tween-80). The T/C by setting is: (dose: 50.0 mg/kg/injection, schedule: Q04DX003 (ip), vehicle: saline with Tween-80) 106 % of control; (dose: 100.0 mg/kg/injection, schedule: Q04DX003 (ip), vehicle: saline with Tween-80) 106 % of control.
For `N[C@@H](Cc1ccc(N(CCCl)CCCl)cc1)C(=O)O`, the T/C runs as follows: (dose: 1.0 mg/kg/injection, schedule: Q04DX002 (ip), vehicle: suspension in saline) 162 % of control; (dose: 1.25 mg/kg/injection, schedule: Q04DX003 (ip), vehicle: saline) 175 % of control; (dose: 2.0 mg/kg/injection, schedule: Q04DX002 (ip), vehicle: suspension in saline) 231 % of control; (dose: 2.5 mg/kg/injection, schedule: Q04DX003 (ip), vehicle: suspension in saline) 181 % of control; (dose: 4.0 mg/kg/injection, schedule: Q04DX002 (ip), vehicle: suspension in saline) 249 % of control; (dose: 5.0 mg/kg/injection, schedule: Q04DX003 (ip), vehicle: suspension in saline) 186 % of control. The T/C runs as follows: (dose: 8.0 mg/kg/injection, schedule: Q04DX002 (ip), vehicle: suspension in saline) 277 % of control; (dose: 10.0 mg/kg/injection, schedule: Q04DX003 (ip), vehicle: suspension in saline) 182 % of control; (dose: 16.0 mg/kg/injection, schedule: Q04DX002 (ip), vehicle: suspension in saline) 226 % of control; (dose: 20.0 mg/kg/injection, schedule: Q04DX003 (ip), vehicle: suspension in saline) 216 % of control.
Consider `O=c1[nH]cc(F)c(=O)[nH]1`, for which the T/C is 120 % of control (dose: 28.8 mg/kg/injection, schedule: Q04DX003 (sc), vehicle: other); 175 % of control (dose: 36.0 mg/kg/injection, schedule: Q04DX003 (ip), vehicle: saline); 186 % of control (dose: 40.0 mg/kg/injection, schedule: Q04DX003 (ip), vehicle: saline); 164 % of control (dose: 60.0 mg/kg/injection, schedule: Q04DX003 (ip), vehicle: saline); 152 % of control (dose: 70.0 mg/kg/injection, schedule: Q07DX003 (ip), vehicle: saline); 95 % of control (dose: 80.0 mg/kg/injection, schedule: Q04DX003 (ip), vehicle: saline). In addition, the T/C reads like this: (dose: 100.0 mg/kg/injection, schedule: Q04DX003 (ip), vehicle: saline) 79 % of control; (dose: 100.0 mg/kg/injection, schedule: Q07DX003 (ip), vehicle: saline) 165 % of control; (dose: 140.0 mg/kg/injection, schedule: Q07DX003 (ip), vehicle: saline) 150 % of control; (dose: 160.0 mg/kg/injection, schedule: Q04DX003 (ip), vehicle: saline) 74 % of control.
